Laboratory results reported in ChEMBL document CHEMBL1146288, “Thiosialoside clusters using carbosilane dendrimer core scaffolds as a new class of influenza neuraminidase inhibitors” (Bioorg Med Chem Lett, 2007).

Tests used:
[1] = Inhibition of influenza A virus A/Memphis/1/71(H3N2)) sialidase; parameters: species or system Influenza A virus (A/Memphis/1/1971(H3N2))
[2] = Inhibition of influenza A virus A/PR/8/34(H1N1)) sialidase

## CC(=O)N[C@@H]1[C@@H]([C@H](O)[C@H](O)CO)O[C@](SCCCCCOCCCSCCC[Si](CCCSCCCOCCCCCS[C@@]2(C(=O)O)C[C@@H](O)[C@H](NC(C)=O)[C@@H]([C@H](O)[C@H](O)CO)O2)(CCCSCCCOCCCCCS[C@@]2(C(=O)O)C[C@@H](O)[C@H](NC(C)=O)[C@@H]([C@H](O)[C@H](O)CO)O2)CCC[Si](C)(C)CCC[Si](CCCSCCCOCCCCCS[C@@]2(C(=O)O)C[C@@H](O)[C@H](NC(C)=O)[C@@H]([C@H](O)[C@H](O)CO)O2)(CCCSCCCOCCCCCS[C@@]2(C(=O)O)C[C@@H](O)[C@H](NC(C)=O)[C@@H]([C@H](O)[C@H](O)CO)O2)CCCSCCCOCCCCCS[C@@]2(C(=O)O)C[C@@H](O)[C@H](NC(C)=O)[C@@H]([C@H](O)[C@H](O)CO)O2)(C(=O)O)C[C@H]1O
[1]
  IC50: 1.25 mM
[2]
  IC50: 5 mM

## CC(=O)N[C@@H]1[C@@H]([C@H](O)[C@H](O)CO)O[C@](SCCCCCOCCCSCCC[Si](CCCSCCCOCCCCCS[C@@]2(C(=O)O)C[C@@H](O)[C@H](NC(C)=O)[C@@H]([C@H](O)[C@H](O)CO)O2)(CCCSCCCOCCCCCS[C@@]2(C(=O)O)C[C@@H](O)[C@H](NC(C)=O)[C@@H]([C@H](O)[C@H](O)CO)O2)c2ccccc2)(C(=O)O)C[C@H]1O
[1]
  IC50: 5 mM
[2]
  IC50: 5 mM

## CC(=O)N[C@@H]1[C@@H]([C@H](O)[C@H](O)CO)O[C@](SCCCCCOCCCSCCC[Si](CCCSCCCOCCCCCS[C@@]2(C(=O)O)C[C@@H](O)[C@H](NC(C)=O)[C@@H]([C@H](O)[C@H](O)CO)O2)(CCCSCCCOCCCCCS[C@@]2(C(=O)O)C[C@@H](O)[C@H](NC(C)=O)[C@@H]([C@H](O)[C@H](O)CO)O2)CCCSCCCOCCCCCS[C@@]2(C(=O)O)C[C@@H](O)[C@H](NC(C)=O)[C@@H]([C@H](O)[C@H](O)CO)O2)(C(=O)O)C[C@H]1O
[1]
  IC50: 5 mM
[2]
  IC50: 5 mM
